# Test results from patent publication US12042523B2, “Compositions and methods for managing or improving bone disorders, joint disorders, cartilage disorders, or a combination thereof” (Unigen, Inc., priority 2014, dated 2024).
# Marks after values point to notes of the source that are not given here.
# Assays:
# Format in all cases: in vivo, rat
# [1] = test system: MIA-induced osteoarthritis in Sprague-Dawley rats; test: Histopathology of femorotibial joint, modified Mankin score, MIA-induced OA model
# Method: Treatment started a week before MIA injection. […] The standardized blends for each treatment groups are defined as UP446=1A:4S, UP1306=1A:2M and the composition at the given dosage=0.282A:0.308S:0.410M where “A”, “S” and “M” stands for acacia, scutellaria and moms, respectively. On the induction day, isoflurane (Lot #B66H15A, Piramal Enterprise Ltd. Andhra Pradesh, India) anesthetized rats were injected with 0.8 mg of MIA (Lot #A0352046, Acros Organics, New Jersey, USA) in 50 μL saline solution into the intra-articular pocket of left femorotibial (knee) joint using 26 G needle an hour after treatment. Normal control rats were injected with an equal volume of saline. […] Body weights were measured once a week to calculate the respective weekly dosage of each group. The merit of combining UP1306 and UP446 was then evaluated using the Colby's equation (Colby, 1967). Pain sensitivity percent inhibition values were used to determine the calculated efficacy values and compared to the observed percent inhibition values of the composition.
# At necropsy, animals were asphyxiated with CO2 and the femorotibial joint was carefully dissected out, fixed in 10% buffered formalin and sent to Nationwide Histology (Veradale, WA, USA) for further histopathology analysis. The fixed specimens were then decalcified with Calci-Clear Rapid for 1 and a half days and embedded in paraffin. Standardized 5 μm serial sections were obtained at the medial and lateral midcondylar level in the sagittal plane and were stained with hematoxylin and eosin (HE) and Safranin O-fast green to enable evaluation of proteoglycan content. A modified Mankin system (Mankin et al., 1981) was used to score structural and cellular alterations of articular components as indications of disease progression and/or treatment efficacy. The histological analysis was conducted by a certified Pathologist at Nationwide Histology.
# [2] = test system: urine CTX-II (C-telopeptide of type II collagen); test: Urine CTX-II ELISA in MIA-induced OA model
# Method: Treatment started a week before MIA injection. […] On the induction day, isoflurane (Lot #[…] Enterprise Ltd. […], India) anesthetized rats were injected with 0.8 mg of MIA (Lot #A0352046, Acros Organics, New Jersey, USA) in 50 μL saline solution into the intra-articular pocket of left femorotibial (knee) joint using 26 G needle an hour after treatment. Normal control rats were injected with an equal volume of saline. […] Body weights were measured once a week to calculate the respective weekly dosage of each group. The merit of combining UP1306 and UP446 was then evaluated using the Colby's equation (Colby, 1967). Pain sensitivity percent inhibition values were used to determine the calculated efficacy values and compared to the observed percent inhibition values of the composition. CTX-II ELISA was performed according to the kit manufacturer's specifications. […] Rat urine samples were thawed on ice and diluted 1:3 with Sample Diluent. 100 μL of samples and standards were added to a 96-well plate pre-coated with CTX-II antibody. The plate was covered and incubated at 37° C. for 2 hours. The liquid was aspirated from each well, then 100 μL of Detection Reagent A working solution was added to each well. The plate was covered and incubated at 37° C. for 1 hour. The solution was aspirated from each well and the plate was washed three times with 1× Wash Buffer. 100 μL of Detection Reagent B working solution was added to each well, then the plate was covered and incubated at 37° C. for 1 hour. The solution was aspirated from each well and the plate was washed five times with 1× Wash Buffer. 90 μL of Substrate Solution was added to each well, then the plate was covered and incubated at 37° C. for 30 minutes. […] Stop Solution was added to each well, and the optical density at 450 nm was detected using a Tecan Genios plate reader. CTX-II concentrations for each sample were determined by multiplying by the dilution factor and fitting the value to the standard curve. To offset the variations in urine flow between rats, values were normalized to total urine protein.
# [3] = test system: MIA-induced osteoarthritis in Sprague-Dawley rats; test: Bone histomorphometry (Micro CT) in concurrent MIA-induced osteoarthritis model
# Method: Male Sprague-Dawley (SD) rats weighing 170˜230 g (6 weeks of age) were purchased and acclimated for one week. […] Anesthetized rats were injected with 0.8 mg of MIA in 50 μl saline solution into the intra-articular pocket at 1 hour after sample treatments. And then samples were administrated daily with gastric tube for 6 weeks. Bone histomorphometry was evaluated on both femur and tibia per knee joint by Micro CT scan using an Inveon™ unit (Siemens Healthcare USA, Inc., Pennsylvania, USA) at Korea Basic science institute, Ochang, Korea. BV/TV as an indicator of trabecular bone volume is the ratio of the trabecular bone volume to the total volume. BMD used as an indicator of osteoporosis and fracture risk. Therefore, we checked those markers whether GM has the efficacy on the osteoporosis. […] Anesthetized rats were injected with 0.8 mg of MIA in 50 μl saline solution into the intra-articular pocket at 1 hour after sample treatments. Samples were administrated daily with gastric tube for 6 weeks. Bone histomorphometry was evaluated on both femur and tibia per knee joint by Micro CT scan using an Inveon™ unit (Siemens Healthcare USA, Inc., Pennsylvania, USA) at Korea Basic science institute, Ochang, Korea. BV/TV as an indicator of trabecular bone volume is the ratio of the trabecular bone volume to the total volume. BMD used as an indicator of osteoporosis and fracture risk.
# [4] = test system: MIA-induced osteoarthritis in Sprague-Dawley rats; test: Pain sensitivity (paw withdrawal / compression threshold, Randall-Salitto) in MIA-induced OA model; conditions: Diclofenac 10, UP1306 400, UP446 250, Composition 650 mg/kg; for Compression threshold (Mean ± SD): oral
# Method: Animals were provided with fresh water and rodent chow diet # T2018 (Harlan Teklad, 370W, Kent, WA, USA) ad libitum and were housed in a temperature-controlled room (22.2° C.) on a 12 h light-dark cycle.
# [5] = MIA 0.8 mg/joint, Diclofenac 10, UP1306 400, UP446 250, Composition 650 mg/kg
# [6] = MIA-induced OA rats, urine, week 5 of daily oral treatment
# [7] = MIA 1 hour after sample treatment, daily 6 weeks, Diclofenac 10 mg/kg, GM 500 mg/kg, mean ± SD
smiles,measurement,setting,value
O=C(O)Cc1ccccc1Nc1c(Cl)cccc1Cl [Diclofenac],reduction in overall structural abnormality,"[1]; AM 400, UP446 250, AU 650, Diclofenac 10 mg/kg",51.4%
same,reduction in matrix GAG loss (Safranin O),"[1]; Diclofenac 10, AM 400, UP446 250, AU 650 mg/kg",46.0%
same,Bone at Articular surfaces (modified Mankin score 0-6),[1]; [5],0.70 ± 0.24
same,Fibrovascular proliferation (modified Mankin score 0-6),[1]; [5],1.55 ± 0.69
same,Inflammation/ Cellular infiltration (modified Mankin score 0-6),[1]; [5],0.55 ± 0.15
same,Matrix GAGs (modified Mankin score 0-6),[1]; [5],1.44 ± 0.38
same,Structural abnormality (modified Mankin score 0-6),[1]; [5],1.23 ± 0.36
same,"Ratio (CTX-II/Protein), uCTX-II normalized to total protein",[2]; [6],64.41
same,uCTX-II (Mean ± SD),[2]; [6],304 ± 233 ng/L
same,reduction in urine CTX-II,"[2]; after 5 weeks of daily oral treatment, diclofenac 10, UP1306+UP446 650, UP1306 400, UP446 250 mg/kg",31.33%
same,BMD (mg/cm3),[3]; [7],982.3 ± 19.44 mg/cm3
same,BV/TV (%),[3]; [7],71.89 ± 5.43%
same,BMD compared with vehicle group,[3]; concurrent MIA model,significantly increased
same,BV/TV compared with vehicle group,[3]; concurrent MIA model,tendency to increase
same,"Percent change of vehicle, Pain sensitivity inhibition",[4]; Baseline,0.9%
same,Compression threshold (Mean ± SD),[4]; Baseline,244.1 ± 3.8
same,"Percent change of vehicle, Pain sensitivity inhibition",[4]; Week-1,40.4* %
same,Compression threshold (Mean ± SD),[4]; Week-1,190.8 ± 1.1
same,"Percent change of vehicle, Pain sensitivity inhibition",[4]; Week-2,28.8* %
same,Compression threshold (Mean ± SD),[4]; Week-2,171.8 ± 0.6
same,"Percent change of vehicle, Pain sensitivity inhibition",[4]; Week-3,31.2* %
same,Compression threshold (Mean ± SD),[4]; Week-3,170.1 ± 2.2
same,"Percent change of vehicle, Pain sensitivity inhibition",[4]; Week-4,30.8* %
same,Compression threshold (Mean ± SD),[4]; Week-4,171.6 ± 0.6
same,"Percent change of vehicle, Pain sensitivity inhibition",[4]; Week-5,31.0* %
same,Compression threshold (Mean ± SD),[4]; Week-5,170.9 ± 1.1
